In experiment [1] the target is T1, GSK-3 (Leishmania major, UniProt Q4QE15).
T1 construct: made in house
Put plainly: Species specificity: recombinant tagged GSK-3 orthologue kinase assay. The format is biochemical, Leishmania majo. From the text: (§1) Given the strong conservation of GSK-3 across evolution and the surprising selectivity of the compounds according to the present invention towards PfGSK-3 versus mammalian GSK-3, a selection of 12 GSK-3 orthologues of various species chosen on the "tree of life" analyzed. The species belong to the Apicomplexa (P. falciparum, P. vivax, P. knowlesi and P. berghei (Gardner, M.J. et al. Genome sequence of the human malaria parasite Plasmodium falciparum. Nature 419, 498-511 (2002); Carlton, J.M. et al. Comparative genomics of the neglected human malaria parasite Plasmodium vivax. Nature 455, 799-803 (2008); Pain, A. et al. The genome of the simian and human malaria parasite Plasmodium knowlesi. Nature 455, 799-803 (2008).). Toxoplasma gondii (Qin, C.L., Tang, J. and Kim, K. Cloning and in vitro expression of TPK3, a Toxoplasma gondii homologue of shaggy/glycogen synthase kinase-3 kinases. Mol. Biochem. Parasitol. 93, 273-283 (1998)), Cryptosporidium parvum.
(§2) Following PCR amplification from cDNA libraries or direct synthesis based on databases sequences, the GSK-3 genes were inserted in appropriate expression vectors and recombinant, tagged kinases were expressed, affinity purified and assayed in the presence of up to 10-100µM of each compound of formula (I) according to the present invention and a selection of the PfGSK-3 inhibitors.

The target of experiment [2] is T2, GSK-3 (Dictyostelium discoideum, UniProt P51136).
T2 construct: made in house
Described as above. The format is biochemical.
Excerpt: as §1, §2

In the next experiment the target is GSK-3 α/β. The experiment is described as above. The settings on record: calculated from dose-response curves; -(100) taken as no inhibition at 100; read-out: IC50 Sus scrofa (GSK-3 α/β). The format is biochemical.
Excerpt: as §1, §2

The next experiment addresses T3, GSK-3 α (Homo sapiens, UniProt P49840).
T3 construct: made in house
Described as above. The format is biochemical. Particulars: calculated from dose-response curves; -(100) taken as no inhibition at 100.
Excerpt: as §1, §2

Experiment [3] addresses T4, GSK-3 (Plasmodium falciparum, UniProt O77344).
T4 construct: made in house
Described as above. The format is biochemical.
Excerpt: as §1, §2

For experiment [4], the target named is T5, GSK-3 (Toxoplasma gondii, UniProt O44002).
T5 sequence (O44002 1-394): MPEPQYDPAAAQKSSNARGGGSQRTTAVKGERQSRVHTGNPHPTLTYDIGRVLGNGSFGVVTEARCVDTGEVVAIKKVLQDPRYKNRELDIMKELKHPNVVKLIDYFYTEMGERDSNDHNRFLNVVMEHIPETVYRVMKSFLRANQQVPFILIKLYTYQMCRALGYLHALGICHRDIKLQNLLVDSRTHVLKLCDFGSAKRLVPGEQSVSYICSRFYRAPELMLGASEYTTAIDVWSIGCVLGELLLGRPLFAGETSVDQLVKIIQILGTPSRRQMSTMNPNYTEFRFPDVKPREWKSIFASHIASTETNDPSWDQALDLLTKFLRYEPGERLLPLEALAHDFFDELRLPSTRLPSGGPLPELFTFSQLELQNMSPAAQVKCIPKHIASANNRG
The description is as above. The format is biochemical, Toxaplasma grondii.

The next experiment addresses T6, PfGSK-3 (Plasmodium falciparum, UniProt O77344).
T6 construct: His6; made in house; host or cells: Escherichia coli TOP 10
T6 sequence (O77344 1-440): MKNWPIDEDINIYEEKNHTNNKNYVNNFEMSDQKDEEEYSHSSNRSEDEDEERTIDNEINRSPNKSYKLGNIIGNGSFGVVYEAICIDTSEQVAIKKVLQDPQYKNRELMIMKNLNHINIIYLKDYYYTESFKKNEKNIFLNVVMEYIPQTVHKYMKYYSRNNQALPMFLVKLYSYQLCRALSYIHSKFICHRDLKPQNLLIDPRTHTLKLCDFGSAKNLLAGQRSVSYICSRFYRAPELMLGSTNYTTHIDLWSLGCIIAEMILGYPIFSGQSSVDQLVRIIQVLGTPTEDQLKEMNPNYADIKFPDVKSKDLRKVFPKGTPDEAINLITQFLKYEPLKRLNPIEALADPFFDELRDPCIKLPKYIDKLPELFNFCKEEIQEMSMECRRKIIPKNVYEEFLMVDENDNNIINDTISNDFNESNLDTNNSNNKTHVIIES
Put plainly: Kinase assay with recombinant (His)6-tagged PfGSK3, GS-1 peptide and [γ-33P] ATP. The settings on record: for anti-PfGSK-3 IC50 values: result in words. The format is biochemical. Here is the method: Escherichia coli strain (TOP 10) containing a plasmid encoding PfGSK3 with six histidines (pBAD-Thio-TOPO, Invitrogen) were cultured into 500 ml of LB medium containing 100 µg/ml ampicillin, at 37°C, under shaking (250 rpm) until OD600 of 0.5 was reached. Expression was induced with 0.5 ml of 20% arabinose (0.02% final concentration). The culture was grown at 37°C with shaking for 4 hours. Cells were harvested by centrifugation at 9000 rpm for 10 min. The bacterial pellet was stored frozen at -80°C until further processing. For proteins extraction, pellet was resuspended in 10 ml of lysis buffer (50 mM NaH2PO4 pH 8.0, 300 mM NaCl, 10 mM imidazole) with the addition of protease inhibitors (complete EDTA-free, Roche) and lysozyme ([…] final). Cells were disrupted by sonication and the cell lysate was centrifuged at 24000 rpm for 30 min at 4°C. The recombinant PfGSK3 protein was purified by Immobilized Metal Affinity Chromatography according to a batch procedure on 1 ml of Nickel affinity resin (Ni-NTA agarose beads, Qiagen). Beads were washed four times with 10 ml of wash buffer (50 mM NaH2PO4 pH 8.0, 300 mM NaCl, 30 mM imidazole). Protein was eluted with one volume of elution buffer (50 mM NaH2PO4 pH 8.0, 300 mM NaCl, 250 mM imidazole, 10% glycerol).
Both porcine GSK3 and PfGSK3 were assayed with 40 µM GS-1 peptide, a specific GSK-3 substrate, ([…]pEDEEE, synthesized by the Peptide Synthesis Unit, Institute of Biomolecular Sciences, University of Southampton, U.K.), in buffer A (25 mM Tris-HCl pH 7.5, 10 mM MgC12, 1 mM EGTA, 1 mM DTT, 50 µg heparin/ml, 0.5 mg BSA/ml) in the presence of 15 µM [γ-^33P] ATP (3000 Ci/mmol; 1 mCi/ml) in a final volume of 30 µl. After 30 min. incubation at 30°C, 25 µl aliquots of supernatant were spotted onto 2.5 x 3 cm pieces of Whatman P81 phosphocellulose paper, and, 20 sec. later, the filters were washed five times (for at least 5 min. each time) in 1 % phosphoric acid. The wet filters were counted in the presence of 1 ml ACS (Amersham) scintillation fluid. The kinase activity was expressed in pmoles phosphate incorporated in GS-1 or in percentage of the maximal activity.

The target in the next experiment is T7, GSK- 3 β (Homo sapiens, UniProt P49841).
T7 construct: made in house
Briefly: Species specificity: recombinant tagged GSK-3 orthologue kinase assay. The format is biochemical. Particulars: calculated from dose-response curves; -(100) taken as no inhibition at 100.
Excerpt: as §1, §2

Setting [5] is: calculated from dose-response curves, -(100) taken as no inhibition at 100, read-out: IC50 Toxaplasma grondii.
Setting [6] is: unit only in the introducing sentence b99, not in the table, read-out: IC50 PfGSK-3.

Like-named read-outs stand apart in the source and are kept apart here.

T2 sequence (P51136 whole entry): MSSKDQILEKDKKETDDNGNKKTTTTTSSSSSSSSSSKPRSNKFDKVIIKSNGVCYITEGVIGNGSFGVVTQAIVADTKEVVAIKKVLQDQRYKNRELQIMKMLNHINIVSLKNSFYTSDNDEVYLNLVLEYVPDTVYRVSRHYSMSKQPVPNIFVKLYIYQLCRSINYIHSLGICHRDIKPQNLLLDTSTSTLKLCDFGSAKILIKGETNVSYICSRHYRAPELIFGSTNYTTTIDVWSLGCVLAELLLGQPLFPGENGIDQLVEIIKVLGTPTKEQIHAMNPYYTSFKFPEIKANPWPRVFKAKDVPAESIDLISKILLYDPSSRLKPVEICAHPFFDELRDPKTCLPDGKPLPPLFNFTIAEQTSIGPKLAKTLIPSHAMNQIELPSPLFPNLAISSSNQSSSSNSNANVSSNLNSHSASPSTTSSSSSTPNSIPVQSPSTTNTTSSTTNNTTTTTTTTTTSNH
T1 sequence (Q4QE15 entry or part of it): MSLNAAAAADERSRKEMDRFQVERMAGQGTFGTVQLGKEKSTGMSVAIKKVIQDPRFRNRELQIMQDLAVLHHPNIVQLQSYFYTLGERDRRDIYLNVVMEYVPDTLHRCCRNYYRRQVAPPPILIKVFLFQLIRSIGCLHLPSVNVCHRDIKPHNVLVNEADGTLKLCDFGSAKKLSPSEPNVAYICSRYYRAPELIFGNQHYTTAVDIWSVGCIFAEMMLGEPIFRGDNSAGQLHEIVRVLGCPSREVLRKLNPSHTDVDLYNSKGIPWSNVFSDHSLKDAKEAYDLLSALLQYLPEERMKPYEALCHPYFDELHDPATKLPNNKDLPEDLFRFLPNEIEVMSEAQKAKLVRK
T7 sequence (P49841 whole entry): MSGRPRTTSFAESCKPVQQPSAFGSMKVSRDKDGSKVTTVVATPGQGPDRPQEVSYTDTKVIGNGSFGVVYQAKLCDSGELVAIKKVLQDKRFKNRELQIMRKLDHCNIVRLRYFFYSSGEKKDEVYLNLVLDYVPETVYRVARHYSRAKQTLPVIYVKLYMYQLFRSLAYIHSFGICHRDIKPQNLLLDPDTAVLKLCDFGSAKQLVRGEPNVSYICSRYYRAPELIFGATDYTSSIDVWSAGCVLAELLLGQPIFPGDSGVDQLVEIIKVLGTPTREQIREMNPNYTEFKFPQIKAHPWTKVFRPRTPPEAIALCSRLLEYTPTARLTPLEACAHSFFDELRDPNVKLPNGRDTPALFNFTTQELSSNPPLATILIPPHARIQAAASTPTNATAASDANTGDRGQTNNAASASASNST
T3 sequence (P49840 whole entry): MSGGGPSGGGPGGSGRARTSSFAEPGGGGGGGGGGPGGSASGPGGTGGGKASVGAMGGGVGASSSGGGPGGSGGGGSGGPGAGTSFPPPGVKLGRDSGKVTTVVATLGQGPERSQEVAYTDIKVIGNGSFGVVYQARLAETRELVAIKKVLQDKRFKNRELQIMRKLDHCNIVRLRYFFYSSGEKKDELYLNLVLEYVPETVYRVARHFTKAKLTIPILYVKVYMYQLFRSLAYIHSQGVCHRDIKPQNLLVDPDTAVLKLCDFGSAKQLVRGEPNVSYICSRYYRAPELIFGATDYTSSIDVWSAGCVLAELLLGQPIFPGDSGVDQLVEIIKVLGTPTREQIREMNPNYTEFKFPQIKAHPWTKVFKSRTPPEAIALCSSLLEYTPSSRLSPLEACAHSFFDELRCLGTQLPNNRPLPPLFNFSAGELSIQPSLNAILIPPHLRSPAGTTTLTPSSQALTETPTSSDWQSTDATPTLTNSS

Regarding `COc1ccccc1-c1c(C#N)c(N)nc2sc(C(=O)c3ccccc3)c(N)c12` [Compound 2, 3,6-diamino-2-benzoyl-4-(2-methoxyphenyl)thieno[2,3-b]pyridine-5-carbonitrile], the IC50 is > 100 µM at GSK-3 [1]; > 100 µM at GSK-3 [2]; > 100 µM at GSK-3 α/β; > 100 µM on GSK-3 α; 7.8 µM on GSK-3 [3]; > 100 µM at GSK-3 [4]. For the same compound, the “anti-PfGSK-3 IC50 values” on PfGSK-3 was “particularly good”.

As to `N#Cc1c(N)nc2sc(C(=O)c3cccc(Cl)c3)c(N)c2c1-c1ccccc1I` [Compound 14, 3,6-diamino-2-(3-chlorobenzoyl)-4-(2-iodophenyl)thieno[2,3-b]pyridine-5-carbonitrile], the IC50 at GSK-3 [1] was > 100 µM; on GSK-3 [2], > 100 µM; at GSK-3 α/β, > 100 µM; on GSK- 3 β, 50 µM; on GSK-3 α, > 100 µM; on GSK-3 [3] (read-out: IC50 Plasmodium falciparum, calculated from dose-response curves), 101 µM. Moreover, the IC50 on GSK-3 [4] (setting [5]) is > 100 µM. The “anti-PfGSK-3 IC50 values” at PfGSK-3 is on record as “particularly good”.

For `N#Cc1c(N)nc2sc(C(=O)c3cccc(Cl)c3)c(N)c2c1-c1ccccc1Br` [Compound 20, 3,6-diamino-4-(2-bromophenyl)-2-(3-chlorobenzoyl)thieno[2,3-b]pyridine-5-carbonitrile], the IC50 is > 100 µM at GSK-3 [1]; 80 µM on GSK-3 [2]; 5.6 µM at GSK-3 α/β; 4 µM on GSK- 3 β; > 100 µM at GSK-3 α; 0.47 µM at GSK-3 [3]. Also, the IC50 on GSK-3 [4] (setting [5]) was > 100 µM. Further, the “anti-PfGSK-3 IC50 values” at PfGSK-3 is on record as “particularly good”.

On to `N#Cc1c(N)nc2sc(C(=O)c3cccc(Cl)c3)c(N)c2c1-c1ccccc1Cl` [Compound 22, 3,6-diamino-2-(3-chlorobenzoyl)-4-(2-chlorophenyl)thieno[2,3-b]pyridine-5-carbonitrile], for which the IC50 at GSK-3 [1] was > 100 µM; at GSK-3 [2], > 10 µM; on GSK-3 α/β, > 10 µM; at GSK- 3 β, 3.3 µM; on GSK-3 α, > 100 µM; at GSK-3 [3], 0.41 µM. For the same compound, the IC50 on GSK-3 [4] was > 100 µM; on PfGSK-3 (read-out: PfGSK-3 IC50) it was 0.47 µM; at PfGSK-3 (setting [6]), 0.06 µM. Moreover, the “anti-PfGSK-3 IC50 values” on PfGSK-3 is “particularly good”.

With `N#Cc1cccc(C(=O)c2sc3nc(N)c(C#N)c(-c4ccccc4Cl)c3c2N)c1` [Compound 26, 3,6-diamino-4-(2-chlorophenyl)-2-(3-cyanobenzoyl)thieno[2,3-b]pyridine-5-carbonitrile], the IC50 was > 100 µM at GSK-3 [1]; > 100 µM on GSK-3 [2]; 22 µM at GSK-3 α/β; 8.1 µM on GSK- 3 β; > 25 µM on GSK-3 α; 0.21 µM at GSK-3 [3]. The results for the IC50 on GSK-3 [4] (setting [5]) and at PfGSK-3 (setting [6]) were > 100 µM and 0.5 µM, respectively. For the same compound, the “anti-PfGSK-3 IC50 values” at PfGSK-3 was “particularly good”.

The record behind these values is patent EP2308883A1, “New derivatives of thieno[2,3-b]pyridine and 5,6,7,8 tetrahydrothieno[2,3 b]quinoline in particular useful in the treatment of malaria” (priority 2009, dated 2011).
